Structures can show the parent of a compound that is named as a salt.
Assays:
influenza A virus = settings: mice infected with influenza A virus; Yang et al., Eur. Resp. J. 19, 952-958 (2002); cited from earlier work
[1] = system: human rhinovirus subtype 14 (HRV 14); experiment: plaque-reduction assay, HeLa cells infected with human rhinovirus subtype 14; format: cell-based
Procedure: For the purpose of the study HeLa cells were inocculated with human rhinovirus subtype 14 (HRV 14), isolated from nasopharyngeal secretions. Ambroxol hydrochloride (AX) was chosen as the compound for antiviral testing. The antiviral activity of the test substance was evaluated in the plaque-reduction assay. To test the effect of AX on rhinovirus replication HeLa cells were infected with a multiplicity of infection (MOI) of 0.0002, without (control for 100% infection) or in the presence of AX at concentrations between 0.3 and 10 μg/ml. Infected cell cultures were cultivated for three days. Inhibition of virus plaques was evaluated microscopically and compared with controls.

HeLa cells = format: cell-based; settings: human, 5 days
Procedure: As a first step an assay on possible toxic effects of AX was performed by incubating HeLa cells with increasing dilutions of the test substance for 5 days.
Cell morphology was checked using a microscope. In addition, an assay for mitochondrial enzyme activity (MTT-assay) was used to evaluate the vitality of cells. No changes in cell morphology and enzyme activity were found at concentrations of 10 μg AX/ml and below.

## Nc1c(Br)cc(Br)cc1CNC1CCC(O)CC1 (stereo not drawn) [Ambroxol, trans-4-(2-amino-3,5-dibromobenzylamino)-cyclohexanole]
Influenza A virus
  survival rate: increase the survival rate

## Nc1c(Br)cc(Br)cc1CN[C@H]1CC[C@H](O)CC1 [Ambroxol hydrochloride]
[1]; Human rhinovirus sp., 72 h, 0.3 μg/ml, HeLa cells, HRV 14, MOI 0.0002, three days, average of 6 individual tests, read-out: relative inhibition
  inhibition at 0.3 µg/mL: 9.71%
[1]; Human rhinovirus sp., 72 h, 0.6 μg/ml, HeLa cells, HRV 14, MOI 0.0002, three days, average of 6 individual tests, read-out: relative inhibition
  inhibition at 0.6 µg/mL: 14.4%
[1]; Human rhinovirus sp., 72 h, 1.2 μg/ml, HeLa cells, HRV 14, MOI 0.0002, three days, average of 6 individual tests, read-out: relative inhibition
  inhibition at 1.2 µg/mL: 34.3%
[1]; Human rhinovirus sp., 72 h, 2.5 μg/ml, HeLa cells, HRV 14, MOI 0.0002, three days, average of 6 individual tests, read-out: relative inhibition
  inhibition at 2.5 µg/mL: 36.8%
[1]; Human rhinovirus sp., 72 h, 5 μg/ml, HeLa cells, HRV 14, MOI 0.0002, three days, average of 6 individual tests, read-out: relative inhibition
  inhibition at 5 µg/mL: 63.7%
[1]; Human rhinovirus sp., 72 h, 10 μg/ml, HeLa cells, HRV 14, MOI 0.0002, three days, average of 6 individual tests, read-out: relative inhibition
  inhibition at 10 µg/mL: 70.7%
[1]; conclusion from Table 6
  rhinovirus replication: effectively blocks rhinovirus replication
HeLa cells
  concentrations at which no changes in cell morphology were found: ≤ 10 μg AX/ml
  concentrations at which no changes in enzyme activity were found: ≤ 10 μg AX/ml
